According to ChEMBL document CHEMBL5233281, “Design, synthesis and biological evaluation of novel 1,3,4,9-tetrahydropyrano[3,4-b]indoles as potential treatment of triple negative breast cancer by suppressing PI3K/AKT/mTOR pathway” (Bioorg Med Chem, 2021):

Assays:
A549 = test: Antiproliferative activity against human A549 cells assessed as inhibition of cell growth incubated for 72 hrs by CCK8 assay; type: functional, cell-based; conditions: A549, 72 h
BGC-823 = test: Antiproliferative activity against human BGC-823 cells assessed as inhibition of cell growth incubated for 72 hrs by CCK8 assay; type: functional, cell-based; conditions: BGC-823, 72 h
MCF7 = test: Antiproliferative activity against human MCF7 cells assessed as inhibition of cell growth incubated for 72 hrs by CCK8 assay; type: functional, cell-based; conditions: MCF7, 72 h
PC-3 = test: Antiproliferative activity against human PC-3 cells assessed as inhibition of cell growth incubated for 72 hrs by CCK8 assay; type: functional, cell-based; conditions: PC-3, 72 h
MDA-MB-231 [1] = test: Antiproliferative activity against human MDA-MB-231 cells assessed as inhibition of cell growth incubated for 72 hrs by CCK8 assay; type: functional, cell-based; conditions: MDA-MB-231, 72 h
[2] = Antiproliferative activity against human MCF-10A cells assessed as inhibition of cell growth incubated for 72 hrs by CCK8 assay; type: toxicity, cell-based
[3] = Selectivity index, ratio of IC50 for antiproliferative activity against human MCF-10A cells to IC50 for antiproliferative activity against human MDA-MB-231 cells; type: toxicity, cell-based; conditions: MCF-10A cells and MDA-MB-231 cells, read-out: Ratio IC50
MDA-MB-231 [4] = test: Antiproliferative activity against human MDA-MB-231 cells assessed as inhibition of cell growth incubated for 72 hrs by SRB assay; type: functional, cell-based; conditions: MDA-MB-231, 72 h

SMILES	IC50 (A549)	IC50 (BGC-823)	IC50 (MCF7)	IC50 (PC-3)	IC50 (MDA-MB-231 [1])	IC50 (MDA-MB-231 [4])	IC50 at 72 h [2]	selectivity ratio [3]
c1ccc2cc(C3OCCc4c3[nH]c3ccccc43)ccc2c1 (stereo unspecified)	> 20 µM	17.8 µM	> 20 µM	> 20 µM	> 20 µM	–	–	–
COc1cccc(C2OCCc3c2[nH]c2ccccc32)c1 (stereo unspecified)	> 20 µM	> 20 µM	18 µM	> 20 µM	15.3 µM	–	40.8 µM	2.67
Clc1ccc(C2OCCc3c2[nH]c2ccccc32)cc1 (stereo unspecified)	17.6 µM	12.3 µM	15.8 µM	12.8 µM	13.1 µM	–	35.4 µM	–
COc1ccc(C2OCCc3c2[nH]c2ccccc32)cc1 (stereo unspecified)	18.9 µM	15.6 µM	16.6 µM	17.8 µM	10.8 µM	–	35.9 µM	3.32
COc1ccccc1C1OCCc2c1[nH]c1ccccc21 (stereo unspecified)	> 20 µM	> 20 µM	> 20 µM	> 20 µM	> 20 µM	–	–	–
COc1ccc2cc(C3OCCc4c3n(Cc3ccccc3)c3ccccc43)ccc2c1 (stereo unspecified)	19.9 µM	19.7 µM	16.5 µM	14.8 µM	15.8 µM	–	41.4 µM	2.63
c1ccc(-c2ccc(C3OCCc4c3[nH]c3ccccc43)cc2)cc1 (stereo unspecified)	> 20 µM	> 20 µM	> 20 µM	> 20 µM	> 20 µM	–	–	–
Cc1ccc(C2OCCc3c2[nH]c2ccccc32)cc1 (stereo unspecified)	> 20 µM	> 20 µM	> 20 µM	18.2 µM	> 20 µM	–	–	–
c1ccc(C2OCCc3c2[nH]c2ccccc32)cc1 (stereo unspecified)	> 20 µM	> 20 µM	> 20 µM	> 20 µM	> 20 µM	–	–	–

More lines, main results first:

IC50 (A549)	IC50 (BGC-823)	IC50 (MCF7)	IC50 (PC-3)	IC50 (MDA-MB-231 [1])	IC50 (MDA-MB-231 [4])	SMILES	IC50 at 72 h [2]	selectivity ratio [3]
> 20 µM	> 20 µM	> 20 µM	18.1 µM	17.8 µM	–	COc1ccc(C2OCCc3c2[nH]c2ccccc32)cc1OC (stereo unspecified)	40.4 µM	2.27
> 20 µM	> 20 µM	> 20 µM	19.7 µM	> 20 µM	–	COc1ccc(C2OCCc3c2[nH]c2ccccc32)c(OC)c1OC (stereo unspecified)	–	–
> 20 µM	> 20 µM	> 20 µM	> 20 µM	16.9 µM	–	COc1ccc(C2OCCc3c2[nH]c2ccc(OC)cc32)cc1 (stereo unspecified)	51.9 µM	3.07
> 20 µM	> 20 µM	> 20 µM	> 20 µM	16.5 µM	–	COc1ccc(C2OCCc3c2[nH]c2ccc(Br)cc32)cc1 (stereo unspecified)	45.1 µM	2.42
17.5 µM	18.1 µM	12.7 µM	16.7 µM	11.6 µM	–	COc1ccc2cc(C3OCCc4c3n(C)c3ccccc43)ccc2c1 (stereo unspecified)	30 µM	3.35
–	–	–	–	–	6.99 µM	C[C@@H](Nc1cc(F)cc(F)c1)c1cc(C(=O)N(C)C)cc2c(=O)cc(N3CCOCC3)oc12 [AZD-8186]	–	–
15.4 µM	13.2 µM	12.2 µM	12.6 µM	4.59 µM	–	COc1ccc2cc(C3OCCc4c3[nH]c3ccccc43)ccc2c1 (stereo unspecified)	21.9 µM	4.77
> 20 µM	> 20 µM	19.4 µM	> 20 µM	> 20 µM	–	CC(=O)Oc1ccc(C2OCCc3c2[nH]c2ccccc32)cc1 (stereo unspecified)	–	–
19.4 µM	14.7 µM	7.05 µM	6.21 µM	6.8 µM	–	Fc1ccc(C2OCCc3c2[nH]c2ccccc32)cc1 (stereo unspecified)	32 µM	6.8
19 µM	18.3 µM	18.5 µM	13.9 µM	13.5 µM	–	COc1cc(C2OCCc3c2[nH]c2ccccc32)cc(OC)c1OC (stereo unspecified)	46.2 µM	–
> 20 µM	> 20 µM	> 20 µM	> 20 µM	> 20 µM	–	Cc1cccc(C2OCCc3c2[nH]c2ccccc32)c1 (stereo unspecified)	–	–
